From US20230148417A1, “FUSED BICYCLIC DERIVATIVE, PREPARATION METHOD THEREFOR, AND PHARMACEUTICAL USE THEREOF” (Jiangsu Hengrui Pharmaceuticals Co., Ltd., priority 2020, published 2023)
pIC50: −log10 of the molar value. Read-outs that look alike come from different tables or passages of the source.

Legend:
[1] = molecular target: T1, AKT3 (Homo sapiens, UniProt Q9Y243); experiment: AKT3 enzymatic assay (KinEASE-STK S3 HTRF kit); format: biochemical; conditions: 0.4 nM enzyme, 45 μM ATP, 2 μM S3-biotin
T1 construct: purchased Invitrogen PV3185
T1 sequence (Q9Y243 whole entry): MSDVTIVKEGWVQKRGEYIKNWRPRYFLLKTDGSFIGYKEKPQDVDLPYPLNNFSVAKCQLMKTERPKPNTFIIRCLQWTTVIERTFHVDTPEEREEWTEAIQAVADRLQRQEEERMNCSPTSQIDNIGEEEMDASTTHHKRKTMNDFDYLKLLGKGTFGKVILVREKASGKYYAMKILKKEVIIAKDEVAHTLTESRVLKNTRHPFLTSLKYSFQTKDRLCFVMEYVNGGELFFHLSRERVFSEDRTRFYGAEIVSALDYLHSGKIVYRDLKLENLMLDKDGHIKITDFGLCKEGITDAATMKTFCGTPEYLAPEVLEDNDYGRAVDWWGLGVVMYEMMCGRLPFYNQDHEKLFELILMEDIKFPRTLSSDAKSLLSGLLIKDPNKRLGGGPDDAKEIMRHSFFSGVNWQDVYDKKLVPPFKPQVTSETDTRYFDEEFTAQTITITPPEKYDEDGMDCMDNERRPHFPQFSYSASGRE
Procedure: (§1) The following methods were used to determine the inhibitory effect of the compounds of the present disclosure on the kinase activity of AKT1/AKT2/AKT3 in vitro. The experimental methodology is briefly described as follows:
(§2) The enzyme activity of AKT1 (Invitrogen, P2999), AKT2 (Invitrogen, PV3184) and AKT3 (Invitrogen, PV3185) was determined using a KinEASE-STK S3 kit (Cisbio, 62ST3PEC). Test compounds were each first subjected to 3-fold gradient dilution with DMSO from 500 μM to obtain a total of 11 concentrations. The 5× buffer in the kit was diluted to 1×buffer, and DTT (Sigma, 43816-10ML) and MgCl2 were added to make the buffer contain 1 mM DTT and 5 mM MgCl2. Compounds were each subjected to 20-fold dilution with 1× buffer for later use. The enzyme solution was obtained by diluting the AKT1/AKT2/AKT3 kinase with 1× buffer. ATP (Invitrogen, PV3227) and S3-biotin in the kit were diluted with 1× buffer to obtain a substrate-ATP mixture solution for later use. 2 μL of the enzyme solution and 4 μL of the compound solution were added to each well of a 384-well plate (Corning, 4513), and the mixture was incubated at room temperature for 30 min, followed by addition of 4 μL of the ATP and S3-biotin mixture solution. The resulting mixture was incubated at room temperature for 90 min. AKT1 enzyme reaction conditions were a final concentration of 2 nM for enzyme, a final concentration of 10 μM for ATP, and a final concentration of 2 μM for S3-biotin. AKT2 enzyme reaction conditions were a final concentration of 5 nM for enzyme, a final concentration of 10 μM for ATP, and a final concentration of 2 μM for S3-biotin. AKT3 enzyme reaction conditions were a final concentration of 0.4 nM for enzyme, a final concentration of 45 μM for ATP, and a final concentration of 2 μM for S3-biotin. The detection solution was prepared by diluting the S3-cryptate and streptavidin-XL665 with the detection buffer in the kit. After incubation, 10 μL of the detection solution was added to each well, the final concentration of S3-cryptate was a concentration obtained by 200-fold dilution of the stock solution, and the final concentration of streptavidin-XL665 was 125 nM. The mixture was incubated at room temperature for 60 min, values of signals emitted at […] and 620 nm after excitation at 337 nm were measured by using an HTRF module of a multi-functional microplate detector (BMG Labtech, PHERAstar FS), and the reading ratio was multiplied by 10,000 to obtain a specific value. Dose-response curves were drawn according to the concentration of the compounds and the specific values by using Graphpad Prism software, and the IC50 values for the inhibitory activity of the compounds were calculated.

[2] = molecular target: T2, AKT2 (Homo sapiens, UniProt P31751); experiment: AKT2 enzymatic assay (KinEASE-STK S3 HTRF kit); format: biochemical; conditions: 5 nM enzyme, 10 μM ATP, 2 μM S3-biotin
T2 construct: purchased Invitrogen PV3184
T2 sequence (P31751 whole entry): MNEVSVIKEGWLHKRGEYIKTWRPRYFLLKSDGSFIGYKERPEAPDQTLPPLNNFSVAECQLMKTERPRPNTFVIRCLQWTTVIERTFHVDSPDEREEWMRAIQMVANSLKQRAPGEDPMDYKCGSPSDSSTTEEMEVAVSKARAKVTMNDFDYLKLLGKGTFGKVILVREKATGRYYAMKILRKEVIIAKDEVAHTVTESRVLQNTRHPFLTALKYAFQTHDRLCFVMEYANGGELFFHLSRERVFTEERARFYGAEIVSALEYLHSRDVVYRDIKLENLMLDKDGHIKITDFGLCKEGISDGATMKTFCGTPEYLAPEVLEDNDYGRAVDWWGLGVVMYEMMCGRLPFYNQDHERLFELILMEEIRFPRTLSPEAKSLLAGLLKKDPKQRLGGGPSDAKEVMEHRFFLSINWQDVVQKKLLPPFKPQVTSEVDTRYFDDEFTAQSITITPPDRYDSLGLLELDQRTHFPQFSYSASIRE
Procedure: as §1, §2

[3] = molecular target: T3, AKT1 (Homo sapiens, UniProt P31749); experiment: AKT1 enzymatic assay (KinEASE-STK S3 HTRF kit); format: biochemical; conditions: 2 nM enzyme, 10 μM ATP, 2 μM S3-biotin
T3 construct: purchased Invitrogen P2999
T3 sequence (P31749 whole entry): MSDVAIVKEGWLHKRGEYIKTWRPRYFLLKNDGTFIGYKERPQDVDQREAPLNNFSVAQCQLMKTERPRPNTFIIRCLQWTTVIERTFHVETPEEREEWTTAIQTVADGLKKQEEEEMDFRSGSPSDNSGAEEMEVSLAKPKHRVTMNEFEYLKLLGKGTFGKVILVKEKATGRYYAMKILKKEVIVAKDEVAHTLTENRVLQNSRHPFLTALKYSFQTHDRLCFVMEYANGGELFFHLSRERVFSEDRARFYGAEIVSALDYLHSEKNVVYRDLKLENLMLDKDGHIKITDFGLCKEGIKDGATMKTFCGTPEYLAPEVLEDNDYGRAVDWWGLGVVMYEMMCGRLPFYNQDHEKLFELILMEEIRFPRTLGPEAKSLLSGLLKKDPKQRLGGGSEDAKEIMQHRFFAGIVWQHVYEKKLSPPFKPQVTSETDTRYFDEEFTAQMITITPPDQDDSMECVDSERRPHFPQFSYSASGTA
Procedure: as §1, §2

[4] = Pharmacokinetic study in nude mice, intragastric administration; format: in vivo; conditions: female, mouse, po, Balb/c nude mice, i.g., plasma; for Vd/F: read-out: Apparent volume of distribution Vz/F; for AUC(0-t): read-out: Area under curve AUC0-t; for CL/F: read-out: Clearance CL/F; for half-life: read-out: Half-life T1/2 (converted); for Cmax: read-out: Plasma concentration Cmax; for MRT: read-out: Residence time MRT
Procedure: The drug concentration in the plasma of the test animals (Balb/c nude mice) at different time points after intragastric administration (i.g.) of the test compounds was determined by using an LC/MS/MS method. The pharmacokinetic performance of the compounds of the present disclosure in nude mice was studied and their pharmacokinetic profile was evaluated.
18 Balb/c nude mice, female, divided into 2 groups and purchased from Vital River Laboratory Animal Technology Co., Ltd.
A certain amount of compound was weighed out, 99.8% 0.5% methylcellulose was added into the compound, and then 0.2% Tween was added. The mixture was subjected to ultrasonic treatment to obtain a suspension, which was stirred for administration.
The nude mice were subjected to intragastric administration, the administration dose was 50 mg/kg or 100 mg/kg, and the administration volume was 0.2 mL/10 g.
The test compound was administered intragastrically to the nude mice, and 0.1 mL of blood was collected before administration and 0.25 h, 0.5 h, 1.0 h, 2.0 h, 4.0 h, 6.0 h, 8.0 h, 11.0 h and 24.0 h after administration. The blood was placed in an EDTA-K2 anticoagulation tube and centrifuged at 10,000 rpm for 1 min (4° C.), and plasma was separated out within 1 h and then stored at −20° C. for testing. The process from blood sampling to centrifugation was performed under an ice bath.
The content of the test compounds at different concentrations in the nude mice plasma after intragastric administration was determined: 20 μL of nude mouse plasma at each time point after administration was mixed with 50 μL of internal standard solution (camptothecin, 100 ng/mL) and 200 μL of acetonitrile, and the mixture was vortexed for 5 min and centrifuged for 10 min at 3700 rpm. 1 μL of supernatant of the plasma sample was taken for LC/MS/MS analysis.

[5] = Pharmacokinetic study in rats, administration by injection (i.v.); format: in vivo; conditions: both sexes, rat, iv, SD rats, 1 mg/kg, plasma; for Vd: read-out: Apparent volume of distribution Vz; for AUC(0-t): read-out: Area under curve AUC0-t; for clearance: read-out: Clearance CL; for half-life: read-out: Half-life T1/2 (converted); for MRT: read-out: Residence time MRT
Procedure: The drug concentration in the plasma of the test animals (SD rats) at different time points after injection (i.v.) of the test compounds was determined by using an LC/MS/MS method. The pharmacokinetic performance in rats of the compounds of present disclosure was studied and their pharmacokinetic profile was evaluated.
8 SD rats, half male and half female, divided into 2 groups, purchased from Vital River Laboratory Animal Technology Co., Ltd.
A certain amount of the compound was weighed out, and 5% of DMSO, 5% of Tween 80 and 90% of normal saline were added to obtain a colorless and clear solution.
The rats were subjected to administration by injection, the administration dose was 1 mg/kg, and the administration volume was 5 mL/kg.
The test compound was administered by injection to the rats, and 0.2 mL of blood was collected from the orbit before administration and 5 min, 0.25 h, 0.5 h, 1.0 h, 2.0 h, 4.0 h, 8.0 h, 11.0 h and 24.0 h after administration. The blood was placed in an EDTA-K2 anticoagulation tube and centrifuged at 10,000 rpm for 1 min (4° C.), and plasma was separated out within 1 h and then stored at −20° C. for testing. The process from blood sampling to centrifugation was performed under an ice bath.
The content of the test compounds at different concentrations in the rat plasma after administration by injection was determined: 25 μL of rat plasma at each time point after administration was mixed with 50 μL of internal standard solution (camptothecin, 100 ng/mL) and 200 μL of acetonitrile, and the mixture was vortexed for 5 min and centrifuged for 10 min at 3700 rpm. 3 μL of supernatant of the plasma sample was taken for LC/MS/MS analysis.

Cc1c[nH]c2ncnc(N3C[C@H]4CC[C@@H](C3)N4C(=O)[C@H](CNC(C)C)c3ccc(Cl)cc3)c12 [Example 3, (S)-2-(4-chlorophenyl)-3-(isopropylamino)-1-((1R,5S)-3-(5-methyl-7H-pyrrolo[2,3-d]pyrimidin-4-yl)-3,8-diazabicyclo[3.2.1]octan-8-yl]propan-1-one]
pIC50 [1]: 8.92
pIC50 [2]: 8.41
pIC50 [3]: 8.28

Cc1c[nH]c2nccc(N3C[C@H]4CC[C@@H](C3)N4C(=O)[C@H](CNC(C)C)c3ccc(Cl)cc3)c12 [Example 9, (S)-2-(4-chlorophenyl)-3-(isopropylamino)-1-((1R,5S)-3-(3-methyl-1H-pyrrolo[2,3-b]pyridin-4-yl)-3,8-diazabicyclo[3.2.1]octan-8-yl)propan-1-one]
pIC50 [1]: 8.20
pIC50 [2]: 7.88
pIC50 [3]: 7.71

CC(C)NC[C@@H](C(=O)N1[C@@H]2CC[C@H]1CN(c1ncnc3c1[C@H](C)C[C@H]3F)C2)c1ccc(Cl)cc1 [Example 8, (S)-2-(4-chlorophenyl)-1-((1R,5S)-3-((5R,7R)-7-fluoro-5-methyl-6,7-dihydro-5H-cyclopenta[d]pyrimidin-4-yl)-3,8-diazabicyclo[3.2.1]octan-8-yl)-3-(isopropylamino)propan-1-one]
pIC50 [1]: 7.18
pIC50 [2]: 7.27
pIC50 [3]: 7.25

CC(C)NC[C@@H](C(=O)N1C2COCC1CN(c1ncnc3[nH]ccc13)C2)c1ccc(Cl)cc1 [Example 6, (2S)-1-(7-(7H-pyrrolo[2,3-d]pyrimidin-4-yl)-3-oxa-7,9-diazabicyclo[3.3.1]nonan-9-yl)-2-(4-chlorophenyl)-3-(isopropylamino)propan-1-one]
pIC50 [1]: 6.57
pIC50 [2]: 6.85
pIC50 [3]: 7.05

CC(C)NC[C@@H](C(=O)N1CC2COCC(C1)N2c1ncnc2[nH]ccc12)c1ccc(Cl)cc1 [Example 7, (2S)-1-(9-(7H-pyrrolo[2,3-d]pyrimidin-4-yl)-3-oxa-7,9-diazabicyclo[3.3.1]nonan-7-yl)-2-(4-chlorophenyl)-3-(isopropylamino)-propan-1-one]
pIC50 [1]: 7.22
pIC50 [2]: 6.57
pIC50 [3]: 7.09

CC(C)NC[C@@H](C(=O)N1[C@@H]2CC[C@H]1CN(c1ncnc3c1[C@H](C)C[C@H]3O)C2)c1ccc(Cl)cc1 [Example 4, (S)-2-(4-chlorophenyl)-1-((1R,5S)-3-((5R,7R)-7-hydroxy-5-methyl-6,7-dihydro-5H-cyclopenta[d]pyrimidin-4-yl)-3,8-diazabicyclo[3.2.1]octan-8-yl)-3-(isopropylamino)propan-1-one]
Vd/F ([4]; 50 mg/kg): 8.71 L/kg
AUC(0-t) ([4]; 50 mg/kg): 14300 ng·h/mL
CL/F ([4]; 50 mg/kg): 57.5 mL/min/kg
half-life ([4]; 50 mg/kg): 1.8 h
Cmax ([4]; 50 mg/kg): 4130 ng/mL
MRT ([4]; 50 mg/kg): 3 h
Vd/F ([4]; 100 mg/kg): 13.2 L/kg
AUC(0-t) ([4]; 100 mg/kg): 27500 ng·h/mL
CL/F ([4]; 100 mg/kg): 60.5 mL/min/kg
half-life ([4]; 100 mg/kg): 2.5 h
Cmax ([4]; 100 mg/kg): 5500 ng/mL
MRT ([4]; 100 mg/kg): 3.7 h
pIC50 [1]: 7.25
pIC50 [2]: 7.33
Vd [5]: 16.3 L/kg
AUC(0-t) [5]: 205 ng·h/mL
clearance [5]: 82.9 mL/min/kg
half-life [5]: 2.5 h
MRT [5]: 2.2 h
pIC50 [3]: 7.41

CC(C)NC[C@@H](C(=O)N1C2CCC1CN(c1ncnc3c1C(C)(C)C(=O)N3)C2)c1ccc(Cl)cc1 [Example 2]
Vd/F ([4]; 50 mg/kg): 8.03 L/kg
AUC(0-t) ([4]; 50 mg/kg): 20200 ng·h/mL
CL/F ([4]; 50 mg/kg): 41.2 mL/min/kg
half-life ([4]; 50 mg/kg): 2.3 h
Cmax ([4]; 50 mg/kg): 3000 ng/mL
MRT ([4]; 50 mg/kg): 4.9 h
Vd/F ([4]; 100 mg/kg): 16.2 L/kg
AUC(0-t) ([4]; 100 mg/kg): 36000 ng·h/mL
CL/F ([4]; 100 mg/kg): 45.4 mL/min/kg
half-life ([4]; 100 mg/kg): 4.1 h
Cmax ([4]; 100 mg/kg): 3500 ng/mL
MRT ([4]; 100 mg/kg): 6.7 h
pIC50 [1]: 8.70
pIC50 [2]: 7.13
Vd [5]: 13 L/kg
AUC(0-t) [5]: 221 ng·h/mL
clearance [5]: 75.4 mL/min/kg
half-life [5]: 2 h
MRT [5]: 2.6 h
pIC50 [3]: 7.22

CC(C)NC[C@@H](C(=O)N1C2CCCC1CN(c1ncnc3[nH]ccc13)C2)c1ccc(Cl)cc1 [Example 5, (2S)-1-(3-(7H-pyrrolo[2,3-d]pyrimidin-4-yl)-3,9-diazabicyclo[3.3.1]nonan-9-yl)-2-(4-chlorophenyl)-3-(isopropylamino)propan-1-one]
pIC50 [1]: 6.95
pIC50 [2]: 7.15
pIC50 [3]: 7.17

CC(C)NC[C@@H](C(=O)N1[C@@H]2CC[C@H]1CN(c1ncnc3[nH]ccc13)C2)c1ccc(Cl)cc1 [Example 1, (S)-1-((1R,5S)-3-(7H-pyrrolo[2,3-d]pyrimidin-4-yl)-3,8-diazabicyclo[3.2.1]octan-8-yl)-2-(4-chlorophenyl)-3-(isopropylamino)propan-1-one]
pIC50 [1]: 7.56
pIC50 [2]: 7.19
pIC50 [3]: 7.70
